These results are taken from patent US20260224688A1, “HELPER LIPIDS FOR NUCLEIC ACID DELIVERY” (SANOFI PASTEUR INC., priority 2023, published 2026).

The subject of data set [1] is hEPO. Kind of data set: IM EPO expression of LNPs containing phosphatidylcholine helper lipids. The data set is classed as in vivo, female BALB/cJ mice. The note with it: PC/CL-C formulations, helper lipid 13.5 mol %, DOPE = 1. On the procedure:
EPO expression studies were conducted with female BALB/cJ mice 6-8 weeks of age. Mice were dosed with […] EPO mRNA in 30 μL of LNPs by a single intramuscular (IM) injection into the gastrocnemius leg muscle. Blood samples were taken 6 and 24 hours post injection and hEPO levels were measured in the blood serum of the mice using an ELISA assay according to the manufacture's protocol. WO2022/099003 A1 also describes an in vivo assay for intramuscular administration (e.g. on page 46, paragraph [00206]).
Lipid nanoparticles were formulated containing the four lipid components shown below, complexed with a hEPO messenger RNA. • Cationic lipid CL-C, 40 mol % • Helper lipid, 13.5 mol % • Cholesterol, 44.8 mol % • DMG-PEG-2K (1,2-dimyristoyl-rac-glycero-3-methoxypolyethyleneglycol), 1.67 mol %
EPO expression studies were performed as described above in Example 3.

In data set [2] the test system is hEPO. In words: IV delivery using phosphatidylcholine helper lipids (EPO expression). The format is in vivo, female BALB/cJ mice. The note with it: cationic lipid CL-0137, helper lipid 13.5 mol %; 0.017 μg EPO mRNA tail vein; 6 hours; DOPE = 1. As for the experimental part:
Lipid nanoparticles were formulated containing the four lipid components shown below, complexed with a hEPO messenger RNA. • Cationic lipid CL-0137, 40 mol % • Helper lipid, 13.5 mol % • Cholesterol, 44.8 mol % • DMG-PEG-2K (1,2-dimyristoyl-rac-glycero-3-methoxypolyethyleneglycol), 1.67 mol %
EPO expression studies were conducted with female BALB/cJ mice 6-8 weeks of age. Mice were dosed with 0.017 μg EPO mRNA LNPs in a volume of 5 ul by a single tail vein injection. Blood samples were taken 6 hours post injection and hEPO levels were measured in the blood serum of the mice using an ELISA assay according to the manufacture's protocol.

A short description of data set [3]: Dynamic light scattering of lipid nanoparticles (size, PDI). The format is physicochemical. Conditions: LNP with cationic lipid CL-A. The method in brief: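 LNPs of cationic lipid:DMG-PEG2000:cholesterol:helper lipid at 40:1.5:30:28.5 molar ratio, made by Process A. Diluted in 10% trehalose (about 0.1 mg/ml mRNA) and sized by DLS at 173° backscatter with a 633-nm laser, giving size and PDI.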

Data set [4] has as its system hEPO. In words: IV EPO expression of LNPs (tail vein injection). The data set is classed as in vivo, female BALB/cJ mice. Conditions: cationic lipid CL-0137, helper lipid 30 mol %; 0.017 μg EPO mRNA tail vein; 6 hours; DOPE = 1. Put shortly: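 Female BALB/cJ mice (6-8 weeks) received a single tail-vein injection of 0.017 μg hEPO mRNA in LNPs (cationic lipid CL-0137/helper lipid/cholesterol/DMG-PEG-2K, 40:30:28.5:1.5 mol %). Serum hEPO was measured by ELISA on blood taken 6 h post-dose.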

Data set [5] deals with hEPO. Kind of data set: IM EPO expression of LNPs containing new helper lipids (hEPO in serum by ELISA). The format is in vivo, female BALB/cJ mice. Conditions: for 6-h EPO / 24-h EPO: single IM injection; for 24-h EPO: serum 24 hours post injection. Put shortly: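 Female BALB/cJ mice aged 6-8 weeks received one intramuscular gastrocnemius injection of […] hEPO mRNA in 30 μL LNPs. The LNPs contained cationic lipid, phospholipid helper, cholesterol and DMG-PEG-2K at 40:30:28.5:1.5 mol %. Serum hEPO was measured by ELISA at 6 and 24 h.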
Background: ELISA stands for enzyme-linked immunosorbent assay.

Data set [6] can be described thus: mRNA encapsulation efficiency of lipid nanoparticles. The data set is classed as physicochemical. The note with it: LNP with cationic lipid CL-A. Put shortly: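 Encapsulation by RiboGreen assay run with and without 0.1% Triton-X 100. LNPs made by ethanolic lipid mixing with acidic aqueous mRNA, molar ratio 40:1.5:30:28.5 (cationic lipid:DMG-PEG2000:cholesterol:helper lipid), ultrafiltered/diafiltered, stored at −80° C. Size/PdI by dynamic light scattering after dilution in 10% trehalose to about 0.1 mg/ml mRNA.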

Where “and” joins values, the source holds several entries; their conditions need not be identical. Identical values can stand only once.

Regarding `CCCCCCCCC(CCCCCCCC)OC(=O)CCCCCCCCC(=O)OC[C@@H](COP(=O)(O)OCC[N+](C)(C)C)OC(=O)CCCCCCC(=O)OC(CCCCCCCC)CCCCCCCC` [Compound 52, (S)-3-((10-(Heptadecan-9-yloxy)-10-oxodecanoyl)oxy)-2-((8-(heptadecan-9-yloxy)-8-oxooctanoyl)oxy)propyl (2-(trimethylammonio)ethyl) phosphate], the “Normalized Mean EPO expression” value in the data set with hEPO [1] turned out to be 1. In the data set on hEPO [2], the “Normalized mean IV EPO expression using PC LNPs” value is reported as 1.53.

Take `CCCCCCCCC(CCCCCCCC)OC(=O)CCCCCCCCC(=O)O[C@@H](COC(=O)CCCCCCC(=O)OC(CCCCCCCC)CCCCCCCC)COP(=O)(O)OCC[N+](C)(C)C` [Compound 44, (S)-2-((10-(Heptadecan-9-yloxy)-10-oxodecanoyl)oxy)-3-((8-(heptadecan-9-yloxy)-8-oxooctanoyl)oxy)propyl (2-(trimethylammonio)ethyl) phosphate]: the “Normalized Mean EPO expression” value in the data set with hEPO [1] came out at 1. For the same compound, the “Normalized mean IV EPO expression using PC LNPs” value with hEPO [2] is 1.32.

Consider `CCCCCCCCC(CCCCCCCC)OC(=O)CCCCCCCC(=O)O[C@@H](COC(=O)CCCCCCC(=O)OC(CCCCCCCC)CCCCCCCC)COP(=O)(O)OCC[N+](C)(C)C` [Compound 46, (S)-3-((8-(Heptadecan-9-yloxy)-8-oxooctanoyl)oxy)-2-((9-(heptadecan-9-yloxy)-9-oxononanoyl)oxy)propyl (2-(trimethylammonio)ethyl) phosphate], for which the “Normalized Mean EPO expression” value in the data set on hEPO [1] is 1.1. Moreover, the “Normalized mean IV EPO expression using PC LNPs” value in the data set on hEPO [2] amounted to 1.34.

As to `CCCCCCCCC(CCCCCCCC)OC(=O)CCCCCCC(=O)OC[C@@H](COP(=O)([O-])OCC[N+](C)(C)C)OC(=O)CCCCCCC(=O)OC(CCCCCCCC)CCCCCCCC` [Compound 42, (S)-2,3-Bis((8-(heptadecan-9-yloxy)-8-oxooctanoyl)oxy)propyl (2-(trimethylammonio)ethyl) phosphate], in the data set on hEPO [1], the “Normalized Mean EPO expression” value was 1.1. Further, in the data set with hEPO [2], the “Normalized mean IV EPO expression using PC LNPs” value was 1.16.

As for `CCCCCCCC/C=C\CCCCCCCC(=O)OC[C@H](COP(=O)(O)OCCN)OC(=O)CCCCCCC/C=C\CCCCCCCC` [DOPE, dioleoylphosphatidylethanolamine, reference compound], the “Polydispersity Index (PDI)” value in data set [3] was 0.06 and 0.100. Further, the Size in data set [3] (hEPO mRNA, 40:30:28.5:1.5) is 129 nm and 119 nm. For the same compound, the “Normalized Mean IV EPO expression” value in the data set on hEPO [4] came out at 1. Moreover, the “Normalized Mean EPO expression” value is given as 1 in the data set with hEPO [1] and 1 with hEPO [5] (helper lipid CL-C formulations, IM, DOPE = 1). In the data set on hEPO [2], the “Normalized mean IV EPO expression using PC LNPs” value is reported as 1. The “6-h EPO” value was 26.23 ng/mL in the data set on hEPO [5] (CL-A LNP, 0.1 μg EPO mRNA in 30 μL, serum 6 hours post injection); 19.62 ng/mL with hEPO [5] (CL-B LNP, serum 6 hours post injection); 16.38 ng/mL with hEPO [5] (CL-C LNP); 20.96 ng/mL in the data set with hEPO [5] (CL-C LNP, (6-h)). Further, the “24-h EPO” value in the data set on hEPO [5] (CL-A LNP) was found to be 19.128 ng/mL; in the data set on hEPO [5] (CL-B LNP) it was 15.03 ng/mL. For the same compound, the “Encapsulation efficiency (EE)” value in data set [6] was 91%.

Consider `CCCCCCCCC(CCCCCCCC)OC(=O)CCCCCCC(=O)O[C@@H](COC(=O)CCCCC(=O)OC(CCCCCCCC)CCCCCCCC)COP(=O)(O)OCC[N+](C)(C)C` [Compound 48, (S)-3-((6-(Heptadecan-9-yloxy)-6-oxohexanoyl)oxy)-2-((8-(heptadecan-9-yloxy)-8-oxooctanoyl)oxy)propyl (2-(trimethylammonio)ethyl) phosphate], for which the “Normalized Mean EPO expression” value in the data set with hEPO [1] is recorded as 1.1. Further, in the data set with hEPO [2], the “Normalized mean IV EPO expression using PC LNPs” value is given as 1.08.

Take `CCCCCCCCCCCCCCCC(=O)OC[C@@H](COP(=O)(O)OCC[N+](C)(C)C)OC(=O)CCCCCCC(=O)OC(CCCCCCCC)CCCCCCCC` [Compound 56, (S)-2-((8-(Heptadecan-9-yloxy)-8-oxooctanoyl)oxy)-3-(palmitoyloxy)propyl (2-(trimethylammonio)ethyl) phosphate]: the “Normalized Mean EPO expression” value in the data set on hEPO [1] is recorded as 1. For the same compound, the “Normalized mean IV EPO expression using PC LNPs” value with hEPO [2] is recorded as 1.52.
